From patent US20260007758A1, “SO[…]-2 RECEPTOR (SST2R) NON-PEPTIDE DRUG CONJUGATES AND USES THEREOF” (Crinetics Pharmaceuticals, Inc., priority 2024, published 2026)

Key:
Format in all cases: cell-based
[1] = test system: NCI-H524 human small cell lung cancer cells; assay: H524 assay: inhibition of cell proliferation (CellTiter Glo); conditions: 2 h treatment, washout, additional 70 h incubation
How it was run: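 NCI-H524 cells were exposed for 2 h to NDC in an 11-point two-fold series starting at 1 uM. The drug was then washed out and cells grew a further 70 h. CellTiter Glo luminescence gave % inhibition versus untreated control, and IC50 came from a four-parameter nonlinear regression.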

[2] = molecular target: T1, human somatostatin receptor subtype 2 (Homo sapiens, UniProt P30874); assay: Functional assay for SSTR2 agonists (HTRF cAMP); conditions: CHO-K1 cells stably expressing human SST2; NKH477-stimulated cAMP; 20 min at 37 C; read-out: hSST2 cAMP Avg EC50
T1 construct: expressed in transfected cells
T1 sequence (P30874 whole entry): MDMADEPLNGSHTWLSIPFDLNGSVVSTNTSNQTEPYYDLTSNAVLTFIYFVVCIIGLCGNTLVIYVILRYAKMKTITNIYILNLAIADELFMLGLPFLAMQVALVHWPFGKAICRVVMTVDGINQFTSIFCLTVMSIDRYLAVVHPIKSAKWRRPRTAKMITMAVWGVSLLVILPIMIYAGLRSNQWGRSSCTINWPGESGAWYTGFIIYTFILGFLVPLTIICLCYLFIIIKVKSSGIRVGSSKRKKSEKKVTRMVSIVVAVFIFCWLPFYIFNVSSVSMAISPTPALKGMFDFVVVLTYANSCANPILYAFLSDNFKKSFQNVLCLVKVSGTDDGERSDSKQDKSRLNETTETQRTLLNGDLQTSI
How it was run: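 CHO-K1 cells stably expressing human SSTR2 treated with compound (typically 0-10,000 nM final) for 20 min at 37 °C. Lysate cAMP measured by HTRF (665/620 nm ratio), converted via standard curve; EC50 from cAMP vs concentration.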

[3] = molecular target: T2, SST2 (Homo sapiens, UniProt P30874); assay: PathHunter CHO-K1 SST2 Internalization Assay; conditions: PathHunter CHO-K1 SST2 cells; 90 min at 37 C; luminescence; read-out: Internalization EC50
T2 construct: host or cells: PathHunter CHO-K1 SST2 cells
T2 sequence (P30874 whole entry): as above
How it was run: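 CHO-K1 cells expressing human SST2, 2500 cells/well, grown 48 h, then exposed 90 min at 37 C to 11-point 1:3 NDC dilutions (final top 10 uM). Beta-Glo luminescence after 60 min at room temperature; four-parameter IC50, duplicate mean, background-corrected.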

SMILES	EC50 [1] [nM]	EC50 [2] [nM]	EC50 [3] [nM]
CC[C@H](C)[C@@H]([C@@H](CC(=O)N1CCC[C@H]1[C@H](OC)[C@@H](C)C(=O)N[C@H](C)[C@@H](O)c1ccccc1)OC)N(C)C(=O)[C@@H](NC(=O)[C@H](C(C)C)N(C)C(=O)OCc1ccc(NC(=O)[C@H](CCCNC(N)=O)NC(=O)[C@@H](NC(=O)c2cc(NCCCCCC(=O)NCCNc3ncc(-c4cc(C)cc(F)c4)c(N4CCC(N)CC4)c3-c3nc4ccc(Cl)cc4[nH]3)cc(C(=O)NCC(=O)O)c2)C(C)C)cc1)C(C)C [Compound 154]	39	1.6	7.7
CC[C@H](C)[C@@H]([C@@H](CC(=O)N1CCC[C@H]1[C@H](OC)[C@@H](C)C(=O)N[C@H](C)[C@@H](O)c1ccccc1)OC)N(C)C(=O)[C@@H](NC(=O)[C@H](C(C)C)N(C)C(=O)OCc1ccc(NC(=O)[C@H](CCCNC(N)=O)NC(=O)[C@@H](NC(=O)CCOCCOCCOCCOCCC(=O)NCCNc2ncc(-c3cc(C)cc(F)c3)c(N3CCC(N)CC3)c2-c2nc3ccc(Cl)cc3[nH]2)C(C)C)cc1C(=O)O)C(C)C [Compound 4]	740	0.11	3.8
CC[C@H](C)[C@@H]([C@@H](CC(=O)N1CCC[C@H]1[C@H](OC)[C@@H](C)C(=O)N[C@H](C)[C@@H](O)c1ccccc1)OC)N(C)C(=O)[C@@H](NC(=O)[C@H](C(C)C)N(C)C(=O)OCc1ccc(NC(=O)[C@H](CCCNC(N)=O)NC(=O)[C@@H](NC(=O)[C@H](Cc2c[nH]c3ccccc23)NC(=O)CCOCCC(=O)NCCNc2ncc(-c3cc(C)cc(F)c3)c(N3CCC(N)CC3)c2-c2nc3ccc(Cl)cc3[nH]2)C(C)C)cc1C(=O)NCCN)C(C)C [Compound 85]	73	0.72	3.6
CC[C@H](C)[C@@H]([C@@H](CC(=O)N1CCC[C@H]1[C@H](OC)[C@@H](C)C(=O)N[C@H](C)[C@@H](O)c1ccccc1)OC)N(C)C(=O)[C@@H](NC(=O)[C@H](C(C)C)N(C)C(=O)OCc1ccc(NC(=O)[C@H](CCCNC(N)=O)NC(=O)[C@@H](NC(=O)CCOCCC(=O)NCCNc2ncc(-c3cc(C)cc(F)c3)c(N3CCC(N)CC3)c2-c2nc3ccc(Cl)cc3[nH]2)C(C)C)c(O[C@@H]2O[C@H](C(=O)NCCNC(=O)CCOCCOCCOCCOCCC(=O)O)[C@@H](O)[C@H](O)[C@H]2O)c1)C(C)C [Compound 52]	17	0.14	3.5
CC[C@H](C)[C@@H]([C@@H](CC(=O)N1CCC[C@H]1[C@H](OC)[C@@H](C)C(=O)N[C@H](C)[C@@H](O)c1ccccc1)OC)N(C)C(=O)[C@@H](NC(=O)[C@H](C(C)C)N(C)C(=O)OCc1ccc(NC(=O)[C@H](CCCNC(N)=O)NC(=O)[C@@H](NC(=O)Cn2cc(CCOCCC(=O)NCCNc3ncc(-c4cc(C)cc(F)c4)c(N4CCC(N)CC4)c3-c3nc4cc(Cl)ccc4[nH]3)nn2)C(C)C)c(O[C@@H]2O[C@H](C(=O)N3CCNCC3)[C@@H](O)[C@H](O)[C@H]2O)c1)C(C)C [Compound 238]	2.9	0.12	4.7
CC[C@H](C)[C@@H]([C@@H](CC(=O)N1CCC[C@H]1[C@H](OC)[C@@H](C)C(=O)N[C@H](C)[C@@H](O)c1ccccc1)OC)N(C)C(=O)[C@@H](NC(=O)[C@H](C(C)C)N(C)C(=O)OCc1ccc(NC(=O)[C@H](CCCNC(N)=O)NC(=O)[C@@H](NC(=O)c2cc(NC(=O)C[C@@H](N)C(=O)NCCOCCC(=O)NCCNc3ncc(-c4cc(C)cc(F)c4)c(N4CCC(N)CC4)c3-c3nc4ccc(Cl)cc4[nH]3)cc(C(=O)NCC(=O)O)c2)C(C)C)cc1)C(C)C [Compound 156]	140	0.28	14
CC[C@H](C)[C@@H]([C@@H](CC(=O)N1CCC[C@H]1[C@H](OC)[C@@H](C)C(=O)N[C@H](C)[C@@H](O)c1ccccc1)OC)N(C)C(=O)[C@@H](NC(=O)[C@H](C(C)C)N(C)C(=O)OCc1ccc(NC(=O)[C@H](CCCNC(N)=O)NC(=O)[C@@H](NC(=O)c2cc(NCCOCCC(=O)NCCNc3ncc(-c4cc(C)cc(F)c4)c(N4CCC(N)CC4)c3-c3nc4ccc(Cl)cc4[nH]3)cc(C(=O)NCCN(CC(=O)O)CC(=O)O)c2)C(C)C)cc1)C(C)C [Compound 189]	2200	0.4	7.6
CC[C@H](C)[C@@H]([C@@H](CC(=O)N1CCC[C@H]1[C@H](OC)[C@@H](C)C(=O)N[C@H](C)[C@@H](O)c1ccccc1)OC)N(C)C(=O)[C@@H](NC(=O)[C@H](C(C)C)N(C)C(=O)OCc1ccc(NC(=O)[C@H](CCCNC(N)=O)NC(=O)[C@@H](NC(=O)C[C@@H](N)C(=O)NCCOCCOCCOCCOCCC(=O)NCCNc2ncc(-c3cc(C)cc(F)c3)c(N3CCC(NC)CC3)c2-c2nc3ccc(Cl)cc3[nH]2)C(C)C)c(O[C@@H]2O[C@H](C(=O)O)[C@@H](O)[C@H](O)[C@H]2O)c1)C(C)C [Compound 122]	27	0.19	8.8
CC[C@H](C)[C@@H]([C@@H](CC(=O)N1CCC[C@H]1[C@H](OC)[C@@H](C)C(=O)N[C@H](C)[C@@H](O)c1ccccc1)OC)N(C)C(=O)[C@@H](NC(=O)[C@H](C(C)C)N(C)C(=O)OCc1ccc(NC(=O)[C@H](CCCNC(N)=O)NC(=O)[C@@H](NC(=O)CCOCCOCCOCCOCCC(=O)NCCNc2ncc(-c3cc(C)cc(F)c3)c(N3CCC(N)CC3)c2-c2nc3ccc(Cl)cc3[nH]2)C(C)C)cc1C(=O)N1CC(C(=O)O)C1)C(C)C [Compound 67]	85	0.086	5.5
CC[C@H](C)[C@@H]([C@@H](CC(=O)N1CCC[C@H]1[C@H](OC)[C@@H](C)C(=O)N[C@H](C)[C@@H](O)c1ccccc1)OC)N(C)C(=O)[C@@H](NC(=O)[C@H](C(C)C)N(C)C(=O)OCc1ccc(NC(=O)[C@H](CCCNC(N)=O)NC(=O)[C@@H](NC(=O)CCOCCOCCOCCOCCC(=O)NCCCNc2ncc(-c3cc(C)cc(F)c3)c(N3CCC(N)CC3)c2-c2nc3ccc(Cl)cc3[nH]2)C(C)C)cc1)C(C)C [Compound 197]	12	0.27	6.5
CC[C@H](C)[C@@H]([C@@H](CC(=O)N1CCC[C@H]1[C@H](OC)[C@@H](C)C(=O)N[C@H](C)[C@@H](O)c1ccccc1)OC)N(C)C(=O)[C@@H](NC(=O)[C@H](C(C)C)N(C)C(=O)OCc1ccc(NC(=O)[C@H](CCCNC(N)=O)NC(=O)[C@@H](NC(=O)c2cc(NCCOCCC(=O)NCCNc3ncc(-c4cc(C)cc(F)c4)c(N4CCC(N)CC4)c3-c3nc4ccc(Cl)cc4[nH]3)cc(C(=O)NC[C@@H](N)C(=O)O)c2)C(C)C)cc1)C(C)C [Compound 147]	35	0.56	23
CC[C@H](C)[C@@H]([C@@H](CC(=O)N1CCC[C@H]1[C@H](OC)[C@@H](C)C(=O)N[C@H](C)[C@@H](O)c1ccccc1)OC)N(C)C(=O)[C@@H](NC(=O)C(C(C)C)N(C)C(=O)OCc1ccc(NC(=O)[C@H](CCCNC(N)=O)NC(=O)[C@@H](NC(=O)CCOCCC(=O)NCCNc2ncc(-c3cc(C)cc(F)c3)c(N3CCC(N)CC3)c2-c2nc3ccc(Cl)cc3[nH]2)C(C)C)c(O[C@@H]2O[C@H](C(=O)N3CCN(CC(=O)O)CC3)[C@@H](O)[C@H](O)[C@H]2O)c1)C(C)C (stereo partly drawn) [Compound 227]	11	0.078	3.1
CC[C@H](C)[C@@H]([C@@H](CC(=O)N1CCC[C@H]1[C@H](OC)[C@@H](C)C(=O)N[C@H](C)[C@@H](O)c1ccccc1)OC)N(C)C(=O)[C@@H](NC(=O)[C@H](C(C)C)N(C)C(=O)OCc1ccc(NC(=O)[C@H](CCCNC(N)=O)NC(=O)[C@@H](NC(=O)CCOCCC(=O)NCCNc2ncc(-c3cc(C)cc(F)c3)c(N3CCC(N)CC3)c2-c2nc3ccc(Cl)cc3[nH]2)C(C)C)c(O[C@@H]2O[C@H](C(=O)NCCS(=O)(=O)O)[C@@H](O)[C@H](O)[C@H]2O)c1)C(C)C [Compound 208]	8.9	0.062	3.1
CC[C@H](C)[C@@H]([C@@H](CC(=O)N1CCC[C@H]1[C@H](OC)[C@@H](C)C(=O)N[C@H](C)[C@@H](O)c1ccccc1)OC)N(C)C(=O)[C@@H](NC(=O)[C@H](C(C)C)N(C)C(=O)OCc1ccc(NC(=O)[C@H](CCCNC(N)=O)NC(=O)[C@@H](NC(=O)c2cc(NCCOCCC(=O)NCCNc3ncc(-c4cc(C)cc(F)c4)c(N4CCC(N)CC4)c3-c3nc4ccc(Cl)cc4[nH]3)cc(C(=O)NCC(=O)O)c2)C(C)C)cc1)C(C)C [Compound 185]	1100	0.19	2.6
CC[C@H](C)[C@@H]([C@@H](CC(=O)N1CCC[C@H]1[C@H](OC)[C@@H](C)C(=O)N[C@H](C)[C@@H](O)c1ccccc1)OC)N(C)C(=O)[C@@H](NC(=O)[C@H](C(C)C)N(C)C(=O)OCc1ccc(NC(=O)[C@H](CCCNC(N)=O)NC(=O)[C@@H](NS(=O)(=O)C[C@H](C)CC(=O)CCOCCC(=O)NCCNc2ncc(-c3cc(C)cc(F)c3)c(N3CCC(N)CC3)c2-c2nc3ccc(Cl)cc3[nH]2)C(C)C)c(O[C@@H]2C[C@H](C(=O)O)[C@@H](O)[C@H](O)[C@H]2O)c1)C(C)C [Compound 132]	410	0.26	3.2
CC[C@H](C)[C@@H]([C@@H](CC(=O)N1CCC[C@H]1[C@H](OC)[C@@H](C)C(=O)N[C@H](C)[C@@H](O)c1ccccc1)OC)N(C)C(=O)[C@@H](NC(=O)[C@H](C(C)C)N(C)C(=O)OCc1ccc(NC(=O)[C@H](CCCNC(N)=O)NC(=O)[C@@H](NC(=O)c2cc(NCCOCCOCCOCCC(=O)NCCNc3ncc(-c4cc(C)cc(F)c4)c(N4CCC(N)CC4)c3-c3nc4ccc(Cl)cc4[nH]3)cc(C(=O)NCCN)c2)C(C)C)cc1)C(C)C [Compound 179]	370	0.54	9.8
